Results from patent US11214803B2, “Modulators of YAP1 expression” (Ionis Pharmaceuticals, Inc., priority 2019, dated 2022).
Strand notation (5' to 3'): a small letter for the sugar, then the base; units joined by * are phosphorothioate-linked, units joined directly phosphodiester-linked; [ ] holds rarer units or linkages, { } end groups; capitals alone tell only the bases. k = constrained ethyl (cEt); [5mC] = 5-methylcytosine; d = 2'-deoxy (DNA)

Test system: Yap1 mRNA
Experiment: Antisense inhibition of human Yap1 in A-431 cells by cEt gapmers, single dose (Example 2, RTS4814)
Assay type: cell-based
Summary of the method: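 A-431 cells (5,000/well) took up 2,000 nM 3-10-3 cEt gapmer by free uptake for ~48 h. Yap1 mRNA was quantified by qRT-PCR with primer probe set RTS4814, normalized to RIBOGREEN total RNA, and reported as % of untreated control.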

[1] = Table 6, A-431 cells, 5,000 cells per well, free uptake, 2,000 nM modified oligonucleotide, approx. 48 hours, RTS4814, normalized to RIBOGREEN, Yap1 mRNA relative to untreated control cells
[2] = Table 22, Yap1 mRNA as percent of untreated control, 3-10-3 cEt gapmers, single dose
[3] = Yap1 mRNA as percent of untreated control, A-431 cells, 3-10-3 cEt gapmers targeting SEQ ID NO.: 1, and 2, Table 30
[4] = Table 25, Yap1 mRNA as percent of untreated control, 3-10-3 cEt gapmers targeting SEQ ID NO.: 1, and 2
[5] = Table 23, Yap1 mRNA as percent of untreated control, 3-10-3 cEt gapmers, single dose
[6] = A-431 cells, 5,000 cells per well, free uptake, 2,000 nM modified oligonucleotide, approx. 48 hours, RTS4814, normalized to RIBOGREEN, Table 4, asterisk (*) = targets amplicon region of primer probe set
[7] = Table 5, A-431 cells, 5,000 cells per well, free uptake, 2,000 nM modified oligonucleotide, approx. 48 hours, RTS4814, normalized to RIBOGREEN, Yap1 mRNA relative to untreated control cells
[8] = Yap1 mRNA as percent of untreated control, A-431 cells, 3-10-3 cEt gapmers targeting SEQ ID NO.: 1, and 2, Table 31
[9] = Table 21, Yap1 mRNA, percent of untreated control, 3-10-3 cEt gapmers targeting SEQ ID NO.: 1 and 2
[10] = Table 18, A-431 cells, 5,000 cells per well, free uptake, 2,000 nM modified oligonucleotide, approx. 48 hours, RTS4814, normalized to RIBOGREEN, Yap1 mRNA as percent of untreated control

716549 (k[5mC]*k[5mC]*kA*d[5mC]*dT*dT*dT*dT*dG*d[5mC]*dA*dA*dT*kG*kT*kT; antisense) [Compound 716549]
YAP1 (% UTC) [1]: 44 % UTC

1074696 (antisense kG*kT*k[5mC]*d[5mC]*d[5mC]*d[5mC]*d[5mC]*dT*dA*dA*dA*dT*d[5mC]*kT*kT*k[5mC]) [Compound 1074696]
YAP1 (% UTC) [2]: 38 % UTC

1074352 (antisense k[5mC]*kA*kT*dG*d[5mC]*dT*dT*dA*dG*dT*d[5mC]*d[5mC]*dA*k[5mC]*kT*kG) [compound 1074352]
YAP1 (% UTC) [3]: 69 % UTC

1076083 (k[5mC]*kG*k[5mC]*dT*dA*dT*dA*dA*dA*dG*dT*dG*dG*k[5mC]*kA*kT; antisense) [compound 1076083]
YAP1 (% UTC) (Table 33, Yap1 mRNA, percent of untreated control, 3-10-3 cEt gapmers targeting SEQ ID NO.: 1, and 2): 46 % UTC

716399 (kA*kA*kT*dT*dT*dG*d[5mC]*dT*dG*dT*dG*d[5mC]*dT*kG*kG*kG; antisense) [Compound 716399]
YAP1 (% UTC) [1]: 40 % UTC

716426 (kT*kT*kT*dG*dA*dT*dT*d[5mC]*dT*dT*dT*dA*dG*kA*kG*k[5mC]; antisense) [Compound 716426]
YAP1 (% UTC) [1]: 45 % UTC

1075563 (k[5mC]*k[5mC]*kA*dT*dA*dT*dA*dA*d[5mC]*d[5mC]*dA*dG*dT*kT*kT*kT; antisense) [Compound 1075563]
YAP1 (% UTC) [4]: 12 % UTC

1076203 (kG*kT*kT*dA*dA*dT*dA*d[5mC]*dA*dT*dG*dG*d[5mC]*k[5mC]*kA*kA; antisense) [Compound 1076203]
YAP1 (% UTC) [4]: 29 % UTC

1075942 (kT*kG*kA*d[5mC]*dT*dA*dT*dA*d[5mC]*dA*dT*dG*dG*kT*kG*kA; antisense) [Compound 1075942]
YAP1 (% UTC) (Table 20, Yap1 mRNA, percent of untreated control, 3-10-3 cEt gapmers targeting SEQ ID NO.: 1 and 2): 46 % UTC

1074793 (kA*kA*kT*d[5mC]*dA*dA*dT*dG*dT*dG*d[5mC]*dT*d[5mC]*k[5mC]*kA*kT; antisense) [Compound 1074793]
YAP1 (% UTC) [5]: 9 % UTC

1075632 (antisense kT*k[5mC]*k[5mC]*d[5mC]*dT*dA*dT*dA*dA*d[5mC]*d[5mC]*dA*dA*kA*kT*kG) [compound 1075632]
YAP1 (% UTC) [3]: 95 % UTC

716463 (kG*kA*k[5mC]*dT*dG*d[5mC]*d[5mC]*d[5mC]*d[5mC]*dA*dA*d[5mC]*d[5mC]*kA*kG*kA; antisense) [Compound 716463]
YAP1 (% UTC) [6]: 64 % UTC

716350 (k[5mC]*kT*k[5mC]*dG*dG*dA*d[5mC]*d[5mC]*dT*dG*d[5mC]*dG*dG*k[5mC]*kG*k[5mC]; antisense) [Compound 716350]
YAP1 (% UTC) [7]: 99 % UTC

1075793 (k[5mC]*kA*kT*dT*dA*dG*dT*dT*dG*d[5mC]*d[5mC]*d[5mC]*dT*kG*kA*k[5mC]; antisense) [compound 1075793]
YAP1 (% UTC) [8]: 31 % UTC

716499 (kT*kT*kT*dT*dG*d[5mC]*d[5mC]*d[5mC]*dT*d[5mC]*d[5mC]*dT*d[5mC]*k[5mC]*kA*kA; antisense) [Compound 716499]
YAP1 (% UTC) [6]: 102 % UTC

716440 (k[5mC]*kT*k[5mC]*dT*dT*d[5mC]*dA*dA*dA*dT*d[5mC]*dA*dG*k[5mC]*kA*kT; antisense) [Compound 716440]
YAP1 (% UTC) [7]: 45 % UTC

716363 (k[5mC]*kG*kG*dA*d[5mC]*dG*dG*d[5mC]*dG*dG*dG*d[5mC]*d[5mC]*k[5mC]*kT*kG; antisense) [Compound 716363]
YAP1 (% UTC) [1]: 103 % UTC

1076136 (k[5mC]*kA*kA*d[5mC]*dA*dA*d[5mC]*d[5mC]*dT*d[5mC]*dA*dT*dG*kT*kA*kA; antisense) [Compound 1076136]
YAP1 (% UTC) [2]: 60 % UTC

1076072 (k[5mC]*kA*k[5mC]*dA*dA*dA*dA*dA*d[5mC]*dT*dG*dG*dT*k[5mC]*kT*kG; antisense) [Compound 1076072]
YAP1 (% UTC) [2]: 18 % UTC

716434 (kT*kA*kA*dA*dT*dG*d[5mC]*dT*dG*dT*dG*dA*d[5mC]*kA*kT*kG; antisense) [Compound 716434]
YAP1 (% UTC) [7]: 44 % UTC

1074535 (antisense kG*kT*kA*dA*dT*dA*dG*d[5mC]*dT*d[5mC]*dT*dT*dT*k[5mC]*kT*kA) [Compound 1074535]
YAP1 (% UTC) [9]: 5 % UTC

1075396 (kA*kT*kT*dA*dT*d[5mC]*dG*d[5mC]*dA*d[5mC]*dA*dT*dA*k[5mC]*kA*kT; antisense) [Compound 1075396]
YAP1 (% UTC) [10]: 89 % UTC

1076517 (antisense k[5mC]*kA*kT*dA*dA*dT*dA*dA*dG*dA*d[5mC]*dT*dA*kA*kA*k[5mC]) [Compound 1076517]
YAP1 (% UTC) (Table 19, A-431 cells, 5,000 cells per well, free uptake, 2,000 nM modified oligonucleotide, approx. 48 hours, RTS4814, normalized to RIBOGREEN, Yap1 mRNA as percent of untreated control): 102 % UTC

1076139 (k[5mC]*kG*kA*dA*dA*dA*dA*dA*dG*d[5mC]*d[5mC]*dA*dA*k[5mC]*kA*kA; antisense) [Compound 1076139]
YAP1 (% UTC) [4]: 18 % UTC

1075335 (k[5mC]*kT*kT*dA*dA*dT*dA*dA*dT*d[5mC]*dT*dA*d[5mC]*k[5mC]*kA*kG; antisense) [Compound 1075335]
YAP1 (% UTC) [9]: 30 % UTC

1076080 (k[5mC]*kA*kT*dT*dA*dG*d[5mC]*dA*dG*dT*dT*d[5mC]*dA*k[5mC]*kT*kA; antisense) [compound 1076080]
YAP1 (% UTC) [3]: 55 % UTC

1075467 (antisense k[5mC]*kA*kT*dT*dA*dA*dT*dG*d[5mC]*d[5mC]*dA*dT*d[5mC]*k[5mC]*kA*kA) [Compound 1075467]
YAP1 (% UTC) [4]: 60 % UTC

716474 (kT*kA*kA*dA*dT*dG*dA*dA*dG*dG*dT*dA*dA*kA*k[5mC]*k[5mC]; antisense) [Compound 716474]
YAP1 (% UTC) [1]: 120 % UTC

1075755 (kA*k[5mC]*kT*dT*dA*dA*dA*dT*dG*dG*d[5mC]*dA*d[5mC]*kA*kG*kT; antisense) [Compound 1075755]
YAP1 (% UTC) [4]: 73 % UTC

716436 (kA*k[5mC]*kT*dG*dG*dA*d[5mC]*dA*dA*dA*dG*dG*dA*kA*kG*k[5mC]; antisense) [Compound 716436]
YAP1 (% UTC) [6]: 59 % UTC

1076391 (k[5mC]*kA*kA*dA*dT*dA*dT*dA*dG*dT*dT*dA*dG*k[5mC]*k[5mC]*kT; antisense) [Compound 1076391]
YAP1 (% UTC) [9]: 22 % UTC

1074315 (antisense kG*kA*kT*dT*dG*dA*dT*dA*dT*dT*d[5mC]*d[5mC]*dG*k[5mC]*kA*kT) [Compound 1074315]
YAP1 (% UTC) [4]: 3 % UTC

1075250 (kA*kA*kT*dT*dA*d[5mC]*dG*dA*dT*dT*dA*dG*dA*kT*k[5mC]*kA; antisense) [compound 1075250]
YAP1 (% UTC) (Table 32, Yap1 mRNA, percent of untreated control, 3-10-3 cEt gapmers targeting SEQ ID NO.: 1, and 2): 55 % UTC

1075273 (antisense kA*kA*kA*dT*dT*dA*dT*dG*dG*dT*d[5mC]*dA*dG*kG*k[5mC]*kT) [Compound 1075273]
YAP1 (% UTC) [5]: 18 % UTC

716461 (kA*kT*kA*dA*dA*d[5mC]*dT*dA*d[5mC]*dT*dA*dG*dT*k[5mC]*kA*kT; antisense) [Compound 716461]
YAP1 (% UTC) [7]: 123 % UTC

1074896 (antisense kG*k[5mC]*kA*dA*dA*dG*dT*dT*d[5mC]*d[5mC]*dT*dA*dT*kG*k[5mC]*kT) [compound 1074896]
YAP1 (% UTC) [3]: 99 % UTC

1076393 (k[5mC]*kT*kT*dT*dA*d[5mC]*dT*dT*dA*d[5mC]*dT*dG*dG*kT*kG*kG; antisense) [Compound 1076393]
YAP1 (% UTC) [5]: 4 % UTC

1075783 (k[5mC]*kT*kT*dA*dA*dT*dT*dT*dA*d[5mC]*d[5mC]*dT*dG*kA*kA*k[5mC]; antisense) [Compound 1075783]
YAP1 (% UTC) [9]: 36 % UTC

1076458 (antisense k[5mC]*kT*kT*dA*dA*dT*dT*dA*dG*d[5mC]*d[5mC]*dT*d[5mC]*kA*kG*kT) [Compound 1076458]
YAP1 (% UTC) (Table 24, Yap1 mRNA as percent of untreated control, 3-10-3 cEt gapmers targeting SEQ ID NO.: 1, and 2): 6 % UTC

1075377 (antisense k[5mC]*kT*kA*dG*dA*dA*dA*dG*dG*dT*dT*dG*dG*k[5mC]*k[5mC]*k[5mC]) [compound 1075377]
YAP1 (% UTC) [8]: 108 % UTC

1076132 (k[5mC]*kA*kT*d[5mC]*dA*dA*dT*dA*d[5mC]*dT*dG*dA*d[5mC]*kA*kT*k[5mC]; antisense) [Compound 1076132]
YAP1 (% UTC) [10]: 28 % UTC

716391 (kG*kG*kA*dG*d[5mC]*dA*d[5mC]*dT*d[5mC]*dT*dG*dA*d[5mC]*kT*kG*kA; antisense) [Compound 716391]
YAP1 (% UTC) [6]: 44 % UTC

716562 (kG*k[5mC]*k[5mC]*dT*dG*d[5mC]*d[5mC]*dG*dA*dA*dG*d[5mC]*dA*kG*kT*kT) [Compound 716562]
YAP1 (% UTC) (Table 7 (gapmers targeting SEQ ID NO: 3 and 4), A-431 cells, free uptake, 2,000 nM, approximately 48 hours, RTS4814): 103 % UTC

1075176 (antisense kA*kA*kT*dT*dA*d[5mC]*d[5mC]*d[5mC]*dG*dG*dG*dA*dA*k[5mC]*kT*kA) [Compound 1075176]
YAP1 (% UTC) [2]: 70 % UTC
